Legend:
[1] = biological target: T1, agonist-bound ERα LBD (Homo sapiens, UniProt P03372); experiment: Competition assays of GRIP1 NR Box 2 peptide; conditions: binding to agonist-bound ERα LBD
T1 sequence (P03372 311-547 limits assumed): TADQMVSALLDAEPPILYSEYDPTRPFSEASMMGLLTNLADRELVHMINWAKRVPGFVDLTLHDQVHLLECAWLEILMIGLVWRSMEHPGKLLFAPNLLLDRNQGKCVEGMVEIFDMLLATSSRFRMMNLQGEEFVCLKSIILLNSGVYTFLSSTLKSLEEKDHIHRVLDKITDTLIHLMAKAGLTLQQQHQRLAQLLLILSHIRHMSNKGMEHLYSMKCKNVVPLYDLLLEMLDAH

[2] = biological target: T2, hERα-LBD (Homo sapiens, UniProt P03372); experiment: Electrophoretic mobility shift assay (native PAGE); format: binding; conditions: 2-fold or 10-fold molar excess of peptide, 6% native PAGE
T2 sequence (P03372 311-547 limits assumed): T1 sequence (P03372 311-547 limits assumed)
Description: Eight microgram samples of purified hERα-LBD bound to either DES or OHT were incubated in the absence of the GRIP1 NR Box 2 peptide (SEQ ID NO:4), i.e., buffer alone, or in the presence of either a 2-fold or 10-fold molar excess of the GRIP1 NR Box 2 peptide. The binding reactions were performed on ice for 45 minutes in 10 μl of buffer containing 20 mM Tris, pH 8.1, 1 mM DTT, and 200 mM NaCl and then subjected to 6% native PAGE. Gels were stained with GELCODE Blue Stain reagent (Pierce).
In the presence of the NR box 2 peptide, the migration of the DES-LBD complex was retarded. In contrast, peptide addition had no effect on the mobility of the OHT-LBD complex.

## H-KHKILHRLLQDSS-OH [GRIP1 NR Box 2 peptide]
[1]
  IC50: < 400 nM
[2]; hERα-LBD bound to agonist DES
  migration of the DES-LBD complex: retarded
[2]; hERα-LBD bound to antagonist OHT
  mobility of the OHT-LBD complex: no effect
